{
  "source": "paper PMC5218480",
  "about": "(PLoS ONE, 2017)",
  "tested_on": "MV-4-11 cells",
  "test": "Gene expression microarray analysis (Affymetrix PrimeView) and GSEA",
  "type": "cell-based, human",
  "set-up": "RFU PODN (11730768_x_at) / Fold change /veh PODN (11730768_x_at) / RFU LINC00158 (11744669_a_at) / Fold change /veh LINC00158 (11744669_a_at) / RFU DUSP10 (11751237_a_at) / Fold change /veh DUSP10 (11751237_a_at) / RFU ID3 (11757404_x_at) / Fold change /veh ID3 (11757404_x_at) / RFU PLEKHG5 (11737974_s_at) / Fold change /veh PLEKHG5 (11737974_s_at) / RFU LRRC4B (11730491_at) / Fold change /veh LRRC4B (11730491_at) / RFU GIMAP4 (11747438_a_at) / Fold change /veh GIMAP4 (11747438_a_at) / RFU KRT8 (11758183_x_at) / Fold change /veh KRT8 (11758183_x_at) / RFU CNN1 (11734310_a_at) / Fold change /veh CNN1 (11734310_a_at) / RFU VPS37D (11726825_at) / Fold change /veh VPS37D (11726825_at) / RFU C10orf10 (11716522_x_at) / Fold change /veh C10orf10 (11716522_x_at) / RFU KIR2DL2 /// KIR2DL4 /// KIR2DL5A /// KIR2DL5B /// KIR2DS1 /// KIR2DS2 /// KIR2DS3 /// KIR2DS4 /// KIR3DL3 /// KIR3DL3 /// KIR3DS1 (11738374_at) / Fold change /veh KIR2DL2 /// KIR2DL4 /// KIR2DL5A /// KIR2DL5B /// KIR2DS1 /// KIR2DS2 /// KIR2DS3 /// KIR2DS4 /// KIR3DL3 /// KIR3DL3 /// KIR3DS1 (11738374_at) / RFU C1QL1 (11718748_at) / Fold change /veh C1QL1 (11718748_at) / RFU TMPRSS4 (11747572_a_at) / Fold change /veh TMPRSS4 (11747572_a_at) / RFU HAMP (11756126_x_at) / Fold change /veh HAMP (11756126_x_at) / RFU RNFT2 (11725882_a_at) / Fold change /veh RNFT2 (11725882_a_at) / RFU NR4A2 (11747474_a_at) / Fold change /veh NR4A2 (11747474_a_at) / RFU ABCC12 (11746883_a_at) / Fold change /veh ABCC12 (11746883_a_at) / RFU TMEM136 (11760407_x_at) / Fold change /veh TMEM136 (11760407_x_at) / RFU CLDN22 /// WWC2 (11732394_at) / Fold change /veh CLDN22 /// WWC2 (11732394_at) / RFU HLA-DPB1 (11760878_x_at) / Fold change /veh HLA-DPB1 (11760878_x_at) / RFU SPINT1 (11716480_a_at) / Fold change /veh SPINT1 (11716480_a_at) / RFU GAP43 (11754022_s_at) / Fold change /veh GAP43 (11754022_s_at) / RFU A4GNT (11735810_at) / Fold change /veh A4GNT (11735810_at) / RFU PRB3 (11715151_x_at) / Fold change /veh PRB3 (11715151_x_at) / RFU TUBB4B (11761932_at) / Fold change /veh TUBB4B (11761932_at) / RFU CAPN14 (11732068_a_at) / Fold change /veh CAPN14 (11732068_a_at) / RFU TMCC2 (11721928_a_at) / Fold change /veh TMCC2 (11721928_a_at) / RFU IRGQ (11745062_a_at) / Fold change /veh IRGQ (11745062_a_at) / RFU FAM174B (11720279_a_at) / Fold change /veh FAM174B (11720279_a_at) / RFU TMPRSS4 (11748680_a_at) / Fold change /veh TMPRSS4 (11748680_a_at) / RFU FAM212B (11763350_a_at) / Fold change /veh FAM212B (11763350_a_at) / RFU PLEKHG5 (11743358_a_at) / Fold change /veh PLEKHG5 (11743358_a_at) / RFU ZSCAN30 (11745921_a_at) / Fold change /veh ZSCAN30 (11745921_a_at) / RFU CMKLR1 (11741424_a_at) / Fold change /veh CMKLR1 (11741424_a_at) / RFU LOC101060620 /// MAPK8IP1 (11723275_at) / Fold change /veh LOC101060620 /// MAPK8IP1 (11723275_at) / RFU SPTSSB (11747773_x_at) / Fold change /veh SPTSSB (11747773_x_at) / RFU PRSS12 (11739890_at) / Fold change /veh PRSS12 (11739890_at) / RFU BIN1 (11741810_x_at) / Fold change /veh BIN1 (11741810_x_at) / RFU WNT11 (11732464_a_at) / Fold change /veh WNT11 (11732464_a_at) / RFU C10orf10 (11716521_a_at) / Fold change /veh C10orf10 (11716521_a_at) / RFU C5orf56 (11738089_at) / Fold change /veh C5orf56 (11738089_at) / RFU CYB561 (11721691_x_at) / Fold change /veh CYB561 (11721691_x_at) / RFU ANKRD19P (11752326_a_at) / Fold change /veh ANKRD19P (11752326_a_at) / RFU OR2T12 /// OR2T33 /// OR2T8 (11738714_s_at) / Fold change /veh OR2T12 /// OR2T33 /// OR2T8 (11738714_s_at) / RFU VCAN (11748164_a_at) / Fold change /veh VCAN (11748164_a_at) / RFU JSRP1 (11732532_at) / Fold change /veh JSRP1 (11732532_at) / RFU KRTAP10-11 (11738290_x_at) / Fold change /veh KRTAP10-11 (11738290_x_at) / RFU MYO3A (11730013_a_at) / Fold change /veh MYO3A (11730013_a_at) / RFU EBF3 (11725865_a_at) / Fold change /veh EBF3 (11725865_a_at) / RFU CAMK2N1 (11719241_x_at) / Fold change /veh CAMK2N1 (11719241_x_at) / RFU C5orf56 (11738088_a_at) / Fold change /veh C5orf56 (11738088_a_at) / RFU OLFML3 (11715873_a_at) / Fold change /veh OLFML3 (11715873_a_at) / RFU LOC100653217 /// NTM (11731650_a_at) / Fold change /veh LOC100653217 /// NTM (11731650_a_at) / RFU MAPK11 (11762145_a_at) / Fold change /veh MAPK11 (11762145_a_at) / RFU FIZ1 (11724087_x_at) / Fold change /veh FIZ1 (11724087_x_at) / RFU OASL (11726364_x_at) / Fold change /veh OASL (11726364_x_at) / RFU SOX15 (11748057_x_at) / Fold change /veh SOX15 (11748057_x_at) / RFU CD79A (11719716_a_at) / Fold change /veh CD79A (11719716_a_at) / RFU HIST1H1D (11736915_at) / Fold change /veh HIST1H1D (11736915_at) / RFU CASKIN2 (11723855_a_at) / Fold change /veh CASKIN2 (11723855_a_at) / RFU LOC730098 (11760151_x_at) / Fold change /veh LOC730098 (11760151_x_at) / RFU OR4N2 (11742367_at) / Fold change /veh OR4N2 (11742367_at) / RFU PRRT2 (11749266_a_at) / Fold change /veh PRRT2 (11749266_a_at) / RFU SNX32 (11753110_a_at) / Fold change /veh SNX32 (11753110_a_at) / RFU CDHR5 (11726645_a_at) / Fold change /veh CDHR5 (11726645_a_at) / RFU RCAN1 (11760418_a_at) / Fold change /veh RCAN1 (11760418_a_at) / RFU FAM167A (11723789_a_at) / Fold change /veh FAM167A (11723789_a_at) / RFU FAM26E (11764081_at) / Fold change /veh FAM26E (11764081_at) / RFU ISYNA1 (11749810_s_at) / Fold change /veh ISYNA1 (11749810_s_at) / RFU ACY1 (11761880_at) / Fold change /veh ACY1 (11761880_at) / RFU 11764098_at / Fold change /veh 11764098_at / RFU SAMD14 (11745864_x_at) / Fold change /veh SAMD14 (11745864_x_at) / RFU NPB (11741838_a_at) / Fold change /veh NPB (11741838_a_at) / RFU TMPRSS6 (11731388_a_at) / Fold change /veh TMPRSS6 (11731388_a_at) / RFU KRTAP10-2 (11738614_at) / Fold change /veh KRTAP10-2 (11738614_at) / RFU ARHGAP8 /// PRR5-ARHGAP8 (11727945_x_at) / Fold change /veh ARHGAP8 /// PRR5-ARHGAP8 (11727945_x_at) / RFU KRTAP5-7 /// NADSYN1 (11734609_at) / Fold change /veh KRTAP5-7 /// NADSYN1 (11734609_at) / RFU RASL12 (11751679_a_at) / Fold change /veh RASL12 (11751679_a_at) / RFU CDKN2B (11736163_a_at) / Fold change /veh CDKN2B (11736163_a_at) / RFU PRF1 (11729649_at) / Fold change /veh PRF1 (11729649_at) / RFU, ZNF638 /// ZNF638-IT1 / Fold change vs veh, ZNF638 /// ZNF638-IT1 / RFU, PANK3 / Fold change vs veh, PANK3 / RFU, SH3YL1 / Fold change vs veh, SH3YL1 / RFU, ZEB2 / Fold change vs veh, ZEB2 / RFU, NRIP1 / Fold change vs veh, NRIP1 / RFU, PTTG1IP / Fold change vs veh, PTTG1IP / RFU, CAPN2 / Fold change vs veh, CAPN2 / RFU, MED14 / Fold change vs veh, MED14 / RFU, SNORA58 / Fold change vs veh, SNORA58 / RFU, C1orf63 / Fold change vs veh, C1orf63 / RFU, LRRFIP1 / Fold change vs veh, LRRFIP1 / RFU, NDUFAF7 / Fold change vs veh, NDUFAF7 / RFU, SLC12A2 / Fold change vs veh, SLC12A2 / RFU, IBTK / Fold change vs veh, IBTK / RFU, ESF1 / Fold change vs veh, ESF1 / Fold change vs veh, TMEM50B / RFU, TAOK1 / Fold change vs veh, TAOK1 / RFU, ACBD3 / Fold change vs veh, ACBD3 / RFU, TMA16 / Fold change vs veh, TMA16 / RFU, RWDD3 / Fold change vs veh, RWDD3 / RFU, BCAT1 / Fold change vs veh, BCAT1 / RFU, EDEM3 / Fold change vs veh, EDEM3 / RFU, TMEM33 / Fold change vs veh, TMEM33 / RFU, WDR75 / Fold change vs veh, WDR75 / RFU, AHCTF1 / Fold change vs veh, AHCTF1 / RFU, TFRC / Fold change vs veh, TFRC / RFU, ZDHHC17 / Fold change vs veh, ZDHHC17 / RFU, NOM1 / Fold change vs veh, NOM1 / RFU, ARL8B / Fold change vs veh, ARL8B / RFU, ZBTB11 / Fold change vs veh, ZBTB11 / RFU, TAMM41 / Fold change vs veh, TAMM41 / RFU, KIAA1704 /// LOC100996395 / Fold change vs veh, KIAA1704 /// LOC100996395 / RFU, ING1 / Fold change vs veh, ING1 / RFU, TRMT61B / Fold change vs veh, TRMT61B / RFU, FUBP3 / Fold change vs veh, FUBP3 / RFU, TP53 / Fold change vs veh, TP53 / RFU, TNKS2 / Fold change vs veh, TNKS2 / RFU, ZFP14 / Fold change vs veh, ZFP14 / RFU, ACTR2 / Fold change vs veh, ACTR2 / RFU, PPP3R1 / Fold change vs veh, PPP3R1 / RFU, PIK3R1 / Fold change vs veh, PIK3R1 / RFU, HNRNPA1 / Fold change vs veh, HNRNPA1 / RFU, RNF170 / Fold change vs veh, RNF170 / RFU, ZNF28 / Fold change vs veh, ZNF28 / RFU, RNGTT / Fold change vs veh, RNGTT / RFU, OGT / Fold change vs veh, OGT / RFU, BRD1 / Fold change vs veh, BRD1 / RFU, MARS / Fold change vs veh, MARS / RFU, ZNF655 / Fold change vs veh, ZNF655 / RFU, FAHD1 / Fold change vs veh, FAHD1 / RFU, BDP1 / Fold change vs veh, BDP1 / RFU, LRRCC1 / Fold change vs veh, LRRCC1 / RFU, ARID1A / Fold change vs veh, ARID1A / RFU, ZNF146 / Fold change vs veh, ZNF146 / RFU, ZNF330 / Fold change vs veh, ZNF330 / RFU, GPN3 / Fold change vs veh, GPN3 / RFU, C9orf123 / Fold change vs veh, C9orf123 / RFU, N4BP2L2 / Fold change vs veh, N4BP2L2 / RFU, ARFIP1 / Fold change vs veh, ARFIP1 / RFU, FAM179B / Fold change vs veh, FAM179B / RFU, BCL10 / Fold change vs veh, BCL10 / RFU, UHRF1BP1L / Fold change vs veh, UHRF1BP1L / RFU, BET1 / Fold change vs veh, BET1 / RFU, CNOT2 / Fold change vs veh, CNOT2 / RFU, ZNF268 / Fold change vs veh, ZNF268 / Fold change vs veh, ZNF507 / RFU, DGCR2 / Fold change vs veh, DGCR2 / RFU, WDSUB1 / Fold change vs veh, WDSUB1 / Fold change vs veh, HSP90B1 /// MIR3652 / RFU, ADSS / Fold change vs veh, ADSS / RFU, GK / Fold change vs veh, GK / RFU, ZNF148 / Fold change vs veh, ZNF148 / RFU, TAF9 / Fold change vs veh, TAF9 / RFU, SLC1A5 / Fold change vs veh, SLC1A5 / RFU, SLMO2 / Fold change vs veh, SLMO2 / RFU, ABCC4 / Fold change vs veh, ABCC4 / RFU, LOC101060439 /// RAP1B / Fold change vs veh, LOC101060439 /// RAP1B / RFU, RFX7 / Fold change vs veh, RFX7 / RFU, GTPBP10 / Fold change vs veh, GTPBP10 / RFU, CNEP1R1 / Fold change vs veh, CNEP1R1 / RFU, BIVM-ERCC5 /// ERCC5 / Fold change vs veh, BIVM-ERCC5 /// ERCC5 / RFU, ILF3 / Fold change vs veh, ILF3 / RFU 11762660_at / Fold change /veh 11762660_at / RFU VCAN (11757783_s_at) / Fold change /veh VCAN (11757783_s_at) / RFU DDX43 (11728927_at) / Fold change /veh DDX43 (11728927_at) / RFU KRT8 (11758188_x_at) / Fold change /veh KRT8 (11758188_x_at) / RFU NKD1 (11759106_at) / Fold change /veh NKD1 (11759106_at) / RFU SRD5A1 (11742802_a_at) / Fold change /veh SRD5A1 (11742802_a_at) / RFU TPSAB1 /// TPSB2 (11721975_s_at) / Fold change /veh TPSAB1 /// TPSB2 (11721975_s_at) / RFU GSTM3 (11746129_a_at) / Fold change /veh GSTM3 (11746129_a_at) / RFU IL23R (11737362_x_at) / Fold change /veh IL23R (11737362_x_at) / RFU TMEM51 (11727254_a_at) / Fold change /veh TMEM51 (11727254_a_at) / RFU PIWIL2 (11732686_x_at) / Fold change /veh PIWIL2 (11732686_x_at) / RFU ORM1 (11744905_x_at) / Fold change /veh ORM1 (11744905_x_at) / RFU CCDC152 (11743942_at) / Fold change /veh CCDC152 (11743942_at) / RFU ECM1 (11717891_a_at) / Fold change /veh ECM1 (11717891_a_at) / RFU IL23R (11748794_a_at) / Fold change /veh IL23R (11748794_a_at) / RFU TNFAIP8L3 (11732012_x_at) / Fold change /veh TNFAIP8L3 (11732012_x_at) / RFU MBOAT4 (11741988_at) / Fold change /veh MBOAT4 (11741988_at) / RFU 11764193_at / Fold change /veh 11764193_at / RFU TMEM53 (11763286_at) / Fold change /veh TMEM53 (11763286_at) / RFU MAGEB2 (11727129_at) / Fold change /veh MAGEB2 (11727129_at) / RFU TMEM200A (11744735_a_at) / Fold change /veh TMEM200A (11744735_a_at) / RFU CCDC152 (11751479_a_at) / Fold change /veh CCDC152 (11751479_a_at) / RFU FAM211A (11726209_a_at) / Fold change /veh FAM211A (11726209_a_at) / RFU RGS16 (11746705_a_at) / Fold change /veh RGS16 (11746705_a_at) / RFU VCAN (11755009_s_at) / Fold change /veh VCAN (11755009_s_at) / RFU RHOB (11743442_s_at) / Fold change /veh RHOB (11743442_s_at) / RFU RGS16 (11720943_a_at) / Fold change /veh RGS16 (11720943_a_at) / RFU RGS16 (11720944_at) / Fold change /veh RGS16 (11720944_at) / RFU, VPS4B / Fold change vs veh, VPS4B / RFU, CREB1 / Fold change vs veh, CREB1 / RFU, DNAJC13 / Fold change vs veh, DNAJC13 / RFU, GNAQ / Fold change vs veh, GNAQ / RFU, CDK5R1 / Fold change vs veh, CDK5R1 / RFU, ZRANB3 / Fold change vs veh, ZRANB3 / RFU, CUL4A / Fold change vs veh, CUL4A / RFU, CCNY / Fold change vs veh, CCNY / RFU, UFL1 / Fold change vs veh, UFL1 / RFU, COG3 / Fold change vs veh, COG3 / RFU, DIAPH2 / Fold change vs veh, DIAPH2 / RFU, SKA2 / Fold change vs veh, SKA2 / RFU, AFF3 / Fold change vs veh, AFF3 / RFU, LMF1 / Fold change vs veh, LMF1 / RFU, IPO11 / Fold change vs veh, IPO11 / RFU, DFFB / Fold change vs veh, DFFB / RFU, FOXP1 / Fold change vs veh, FOXP1 / RFU, CARD8 / Fold change vs veh, CARD8 / RFU, STRN3 / Fold change vs veh, STRN3 / RFU, ADK / Fold change vs veh, ADK / RFU, RASSF2 / Fold change vs veh, RASSF2 / RFU, WIPF1 / Fold change vs veh, WIPF1 / RFU, LARP1B / Fold change vs veh, LARP1B / RFU, RASA1 / Fold change vs veh, RASA1 / RFU, RB1 / Fold change vs veh, RB1 / RFU, PPFIA1 / Fold change vs veh, PPFIA1 / RFU, MAT2A / Fold change vs veh, MAT2A / RFU, CCT5 / Fold change vs veh, CCT5 / RFU, WDR92 / Fold change vs veh, WDR92 / RFU, CUX1 / Fold change vs veh, CUX1 / RFU, TTC7A / Fold change vs veh, TTC7A / RFU, TMEM135 / Fold change vs veh, TMEM135 / RFU, DEPTOR / Fold change vs veh, DEPTOR / RFU, CPM / Fold change vs veh, CPM / RFU, DNAJB6 / Fold change vs veh, DNAJB6 / RFU, CACNA2D3 / Fold change vs veh, CACNA2D3 / RFU, DTX4 / Fold change vs veh, DTX4 / RFU, TFCP2 / Fold change vs veh, TFCP2 / RFU, GMCL1 /// GMCL1P1 / Fold change vs veh, GMCL1 /// GMCL1P1 / RFU, AEBP2 / Fold change vs veh, AEBP2 / RFU, SNHG1 /// SNORD22 /// SNORD25 /// SNORD26 /// SNORD27 /// SNORD28 /// SNORD29 /// SNORD31 / Fold change vs veh, SNHG1 /// SNORD22 /// SNORD25 /// SNORD26 /// SNORD27 /// SNORD28 /// SNORD29 /// SNORD31 / Fold change (Aza/veh), C12orf56 (ProbeSet 11735607_a_at) / Fold change (ACY-1035/veh), C12orf56 (ProbeSet 11735607_a_at) / Fold change (Aza/veh), FGFR1OP (ProbeSet 11751329_s_at) / Fold change (ACY-1035/veh), FGFR1OP (ProbeSet 11751329_s_at) / Fold change (Aza/veh), VPS36 (ProbeSet 11739960_a_at) / Fold change (ACY-1035/veh), VPS36 (ProbeSet 11739960_a_at) / RFU SYPL1 (11715823_x_at) / Fold change /veh SYPL1 (11715823_x_at) / RFU IGFBP7 (11715501_s_at) / Fold change /veh IGFBP7 (11715501_s_at) / RFU REEP3 (11722064_at) / Fold change /veh REEP3 (11722064_at) / RFU IGLL1 (11728026_x_at) / Fold change /veh IGLL1 (11728026_x_at): dose or concentration left out as unconfirmed",
  "conditions": "MV-4-11 cells, 48 hours",
  "data": [
    {"smiles": "Nc1ncn([C@@H]2O[C@H](CO)[C@@H](O)[C@H]2O)c(=O)n1", "note": "[azacitidine]", "values": [
      {"measurement": "Fold change /veh SRD5A1 (11742802_a_at)", "value": 1.21}
    ]}
  ]
}
